The source made the active and inactive calls. No rule for the calls is given here.
System: T. cruzi-infected H9C2 cardiomyocytes, high-content imaging
Assay: intracellular T. cruzi amastigote inhibition, imaging, H9C2 host cardiomyocytes, host toxicity (AID 1159565);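 also: infected cells incubated 72 h after plating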
[1] = measured here: H9C2 host cell toxicity
[2] = measured here: amastigotes per cell

Structure (SMILES) | IC50 | IC50 [1] | IC50 [2]
COc1ccc(S(=O)(=O)Nc2ccc(C(=O)Nc3nc(-c4ccccn4)cs3)cc2)cc1 | 790 nM | 6300 nM | 630 nM
COc1ccc(NS(=O)(=O)c2cccc(NC(=O)c3cc(F)cc(F)c3)c2)cc1 | 500 nM | > 50000 nM | 500 nM
O=C(Nc1ncc([N+](=O)[O-])s1)C1CC1 | 1000 nM | > 50000 nM | 400 nM
Cc1cc(C)n(-c2nc(NC(C)(C)C)nc(N3CCOCC3)n2)n1 | 10000 nM | 1300 nM | 3200 nM
COc1ccc(NS(=O)(=O)c2cc(NC(=O)c3ccc([N+](=O)[O-])s3)ccc2OC)cc1 | 100 nM | > 50000 nM | 79 nM
O=C(Nc1nc(-c2ccc(F)cc2)cs1)c1ccc([N+](=O)[O-])s1 | 250 nM | 4000 nM | 160 nM
CC(=O)NC1(c2ccccc2)CCN(CC(=O)Nc2ccccc2-c2ccccc2)CC1 | 7900 nM | > 50000 nM | 1600 nM
O=C(CSc1nnc2ccc(-c3ccc(F)cc3)nn12)N1CCCCC1 | 2000 nM | > 50000 nM | 1000 nM
CC(=O)Nc1ccc(-c2cnc(N)c(-c3nc4ccc(F)cc4[nH]3)c2)cc1 | > 50000 nM (inactive) | 790 nM | > 50000 nM
COc1ccc(C(=O)Nc2cc(C(F)(F)F)ccc2N2CCOCC2)c(OC)c1 | 790 nM | > 50000 nM | 320 nM
COc1cc2c(cc1OC)[C@H]1[C@@H](C)c3ccc(OC)c(OC)c3CN1CC2 | > 50000 nM (inactive) | > 50000 nM | 20000 nM
CCOC(=O)c1cn[nH]c1S(=O)(=O)N1CCC1c1ccccc1 (stereo not given) | > 50000 nM (inactive) | > 50000 nM | > 50000 nM
COc1cc(C2SCC(=O)Nc3c2c(C)nn3-c2nc3ccccc3s2)cc(OC)c1O (stereo not given) | > 50000 nM (inactive) | > 50000 nM | > 50000 nM
CN(CCOc1ccc(Cl)cc1)Cc1nc(N)nc(N(C)C)n1 | 10000 nM | > 50000 nM | 7900 nM
COc1cc(F)c2ncc(F)c(CCN3CC[C@H](NCc4cc5c(cn4)OCS5)[C@@H](O)C3)c2c1 | 250 nM | > 50000 nM | 200 nM
COc1ccc(C(=O)NC2CCN(CCn3c(=O)ccc4ncc(F)cc43)CC2)cc1Cl | 630 nM | > 50000 nM | 320 nM
Clc1ccc(Sc2cnccc2N2CCOCC2)cc1 | 130 nM | > 50000 nM | 100 nM
Cc1[nH]nc(-c2nc3ccccc3[nH]2)c1C(=O)NC1CCCNC1 (stereo not given) | 63 nM | 3200 nM | 40 nM

Structure (SMILES) | IC50 | IC50 [1] | IC50 [2]
CN(C)c1ccc(-c2cc3nccnc3c(OC[C@H]3CCCNC3)n2)cn1 | > 50000 nM (inactive) | 20000 nM | 1600 nM
O=C(Nc1cccc(F)c1)N1CCC(Oc2cccc(-c3cccnc3)c2)CC1 | 630 nM | 25000 nM | 500 nM
Cc1[nH]n2c(=O)c3c(nc2c1-c1ccc(Br)cc1)CCCC3 | 1600 nM | > 50000 nM | 790 nM
Cc1c([N+](=O)[O-])c(C(=O)Nc2sc3c(c2C#N)CCC(C)C3)nn1C (stereo not given) | 2500 nM | > 50000 nM | 1600 nM
O=C(COc1ncnc2cc([N+](=O)[O-])ccc12)NC(=O)NC1CCCCC1 | 1000 nM | > 50000 nM | 500 nM
CC(c1ccc2c(c1)CCCC2)N(C)c1ncc2c(N)nc(N)nc2n1 (stereo not given) | 32 nM | 10000 nM | 10 nM
COc1ccc(OC)c2c(=O)c(Cc3ccccc3)c(C)[nH]c12 | 500 nM | > 50000 nM | 130 nM
Nc1nonc1-c1nc2cncc(C(=O)N3CC[C@H](N)C3)c2n1CC1CC1 | > 50000 nM (inactive) | > 50000 nM | 13000 nM
c1cncc(CN(Cc2ccco2)Cc2cn[nH]c2-c2cccs2)c1 | 50 nM | > 50000 nM | 40 nM
O=C(NCc1ccncc1)c1ccccc1N1CCCN(C(=O)Cc2ccc(F)c(F)c2)CC1 | 79 nM | > 50000 nM | 79 nM
CC(=O)Nc1cccc(Nc2ncnc3nc[nH]c23)c1 | 40000 nM | > 50000 nM | 25000 nM
CN(Cc1nc2c(C(=O)N3CCN(Cc4ccccc4)CC3)cccc2[nH]1)C1CCCc2cccnc21 (stereo not given) | 500 nM | 7900 nM | 500 nM
COc1cccc(C(=O)[C@H]2C[C@@H]2CN(Cc2cccnc2)Cc2cccnc2)c1 | 63 nM | > 50000 nM | 50 nM
CCOc1ccc(OCC(=O)N2c3ccccc3CC2C(=O)NC)cc1 (stereo not given) | > 50000 nM (inactive) | > 50000 nM | > 50000 nM
COc1ccc2ncc(Cl)c(CCN3CC[C@H](NCc4cc5c(cn4)OCS5)[C@@H](O)C3)c2n1 | 160 nM | 10000 nM | 100 nM
O=C(CN(Cc1ccccn1)Cc1ccccn1)NCc1ccc(-c2csnn2)cc1 | 63000 nM | > 79000 nM | 7900 nM
C[C@@H](Oc1cc(-n2cnc3ccc(CC(O)CO)cc32)sc1C(N)=O)c1ccccc1Cl (stereo not given in full) | 50000 nM | 130 nM | 13000 nM

From PubChem BioAssay AID1159565 (GlaxoSmithKline (GSK), 2015)
